Test [1] has as its system hASIC3 (h3) and/or hASIC1a (h1a). The test is described as follows: FlexStation/FLIPR assay, channel not marked in the cell. The test is classed as cell-based, human. As to conditions: FlexStation, Table C. From the text:
(§1) The MES-induced peak calcium response (or change in membrane potential), in the presence of test substance, is expressed relative to the MES response alone. Test substances that block the MES-induced calcium response (or change in membrane potential) are re-tested in triplicates. Confirmed hits are picked for further characterization by performing full dose-response curves to determine potency of each hit compound as represented by the IC50 values (i.e., the concentration of the test substance which inhibits 50% of the MES-induced calcium and/or membrane potentiation response; see, for example, FIG. 1).
(§2) The data shown in Table H was acquired using the FlexStation assay described in Example 1 on HEK293 cells expressing hASIC3 (h3) and/or hASIC1a (h1a).

Test [2] has as its target T1, hASIC3 (Homo sapiens, UniProt Q9UHC3).
T1 sequence (Q9UHC3 1-531): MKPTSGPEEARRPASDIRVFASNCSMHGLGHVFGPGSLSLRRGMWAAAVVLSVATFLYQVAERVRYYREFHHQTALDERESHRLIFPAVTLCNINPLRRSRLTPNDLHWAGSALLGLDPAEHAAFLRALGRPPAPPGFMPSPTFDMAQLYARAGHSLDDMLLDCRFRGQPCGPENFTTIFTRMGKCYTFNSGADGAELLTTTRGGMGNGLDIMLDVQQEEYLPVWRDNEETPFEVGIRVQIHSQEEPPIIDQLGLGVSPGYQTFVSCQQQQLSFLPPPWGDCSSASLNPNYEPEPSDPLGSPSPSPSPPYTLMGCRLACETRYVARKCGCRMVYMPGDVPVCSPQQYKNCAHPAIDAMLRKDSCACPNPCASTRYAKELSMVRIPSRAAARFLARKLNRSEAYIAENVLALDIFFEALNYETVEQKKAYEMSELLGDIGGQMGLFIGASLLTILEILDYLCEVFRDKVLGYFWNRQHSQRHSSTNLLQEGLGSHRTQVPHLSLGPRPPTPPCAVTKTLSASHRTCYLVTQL
The test is described as follows: FlexStation assay on HEK293 cells expressing hASIC3. As to conditions: for IC50: FlexStation (Flex), Tables A-F, read-out: Biological Data (IC50 uM) h3 (Flex). Also noted: expressed in transfected cells; host or cells: HEK293 cells. Type of test: cell-based. The procedure:
A vial of FMP dye (Molecular Devices) is resuspended in 10.5 ml of assay buffer (48.3 mM NaCl, 93 mM NMDG, 5 mM KCl, 5 mM CaCl2, 1 mM MgCl2, 10 mM HEPES, pH 7.4). The culture medium is aspirated from the wells, and 100 μl of the FMP loading solution is added to each well. The cells are incubated at 37° C. for 30 min.
After the loading period, the loading solution is left on the cells and the membrane potential-induced fluorescence is measured in FLIPR™ or FlexStation™ (Molecular Devices, USA), or any other suitable equipment known to the skilled in the art.
For cells co-expressing ASIC1a and ASIC3 channels (e.g. HEK293 cells), membrane potential dye (FMP dye) is used and the FlexStation settings are as above.
as §1, §2

Test [3] has as its target T2, hASIC1a (Homo sapiens, UniProt P78348).
T2 sequence (P78348 1-528): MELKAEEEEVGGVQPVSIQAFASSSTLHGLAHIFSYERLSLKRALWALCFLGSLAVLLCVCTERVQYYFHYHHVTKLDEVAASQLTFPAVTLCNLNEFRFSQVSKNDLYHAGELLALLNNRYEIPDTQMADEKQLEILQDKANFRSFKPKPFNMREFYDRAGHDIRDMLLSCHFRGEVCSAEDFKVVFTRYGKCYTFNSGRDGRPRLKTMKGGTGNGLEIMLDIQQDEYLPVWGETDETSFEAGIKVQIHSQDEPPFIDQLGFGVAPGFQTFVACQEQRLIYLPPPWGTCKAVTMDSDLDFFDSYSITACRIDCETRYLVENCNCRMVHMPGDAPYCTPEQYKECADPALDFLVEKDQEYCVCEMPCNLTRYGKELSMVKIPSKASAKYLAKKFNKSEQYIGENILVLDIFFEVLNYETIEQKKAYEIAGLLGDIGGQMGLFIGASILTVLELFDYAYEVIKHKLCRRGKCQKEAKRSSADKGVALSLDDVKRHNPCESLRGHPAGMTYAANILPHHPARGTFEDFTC
Kind of test: FlexStation/FLIPR calcium-imaging assay, acid (MES)-induced response in ASIC1a expressing cells. The test is classed as cell-based. Also noted: expressed in transfected cells. As to conditions: FlexStation (Flex), Tables A-F; read-out: Biological Data (IC50 uM) h1a (Flex). As for the experimental part: Identification of ASIC Antagonists Using Calcium-Imaging
ASIC1a expressing HEK293 or CHO cells are grown in culture medium (DMEM with 10% FBS), in polystyrene culture flasks ([…]) at 37° C. in a humidified atmosphere of 5% CO2. Confluency of cells should be 80-90% on day of plating. Cells are rinsed with 10 ml of PBS and re-suspended by addition of culture medium and trituration with a 25 ml pipette.
The cells are seeded at a density of approximately 1×10^5 cells/ml for HEK293 and 8×10^4 for CHO cells (100 μl/well) in black-walled, clear bottom, poly-D-lysin pre-treated 96-well plates. Plated cells were allowed to proliferate for 48 h before loading with dye.
Fluo-4/AM (1 mg, Molecular Probes) is dissolved in 912 μl DMSO. The Fluo-4/AM stock solution (1 mM) is diluted with culture medium to a final concentration of 2 μM (loading solution).
The culture medium is aspirated from the wells, and 80 μl of the Fluo-4/AM loading solution is added to each well. The cells are incubated at 37° C. for 30 min. When CHO cells are used, probenicid at 2.5 mM (final concentration) is added in the loading solution.
After the loading period (15-20 min., the loading solution is aspirated and the cells are washed twice with 100 μl modified Assay Buffer (145 mM NaCl, 5 mM KCl, 5 mM CaCl2, 1 mM MgCl2, 10 mM HEPES, pH 7.4) to remove extracellular dye. Following the second wash, 100 μl modified Assay Buffer is added to each well and the fluorescence is measured in FLIPR™ or FlexStation™ (Molecular Devices, USA), or any other suitable equipment known to the skilled in the art. When CHO cells are used, probenicid at 2.5 mM (final concentration) is added in the wash buffer.
First addition: 50 μl test solution at a rate of 26 μl/sec and a starting height of 125 μl
Second addition: 50 μl MES solution (20 mM, 5 mM final concentration) at a rate of 26 μl/sec and a starting height of 115 μl.
Reading intervals: pre-incubation—120 sec. antagonist phase, addition of MES at 145 sec. and reading time with agonist 100 sec (total run time of 240 sec).
Fluorescence obtained after stimulation is corrected for the mean basal fluorescence (in modified Assay Buffer).
as §1

Test [4] addresses T2, hASIC1a. The test is described as follows: Two-electrode voltage clamp in Xenopus laevis oocytes expressing hASIC1a (OpusExpress). Also noted: expressed in transfected cells; host or cells: Xenopus laevis oocytes, nuclear microinjection of cDNA (e.g. in pCDNA3). Type of test: cell-based. The method in brief:
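Two-electrode voltage clamp on Xenopus oocytes expressing homomeric hASIC1a, recorded on an automated multichannel system. Oocytes superfused with Ringer (HEPES, pH 7.4); currents evoked by MES-buffered acidic Ringer, with compound present in both control and acidic solutions, at room temperature.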
(In two-electrode clamp one electrode senses voltage and the other passes current.)

For the compound `COc1ccc(-c2cc(C(=O)O)c3cc(Cl)ccc3n2)cc1` [Compound 38, 6-chloro-2-(4-methoxy-phenyl)-quinoline-4-carboxylic acid], in test [1], the “Biological Data (Flex), channel not given” value is “Not Active (Flex)”.

With `COc1ccc(-c2cc(C(=O)O)c3ccccc3n2)cc1OC` [Compound 39, 2-(3,4-Dimethoxy-phenyl)-quinoline-4-carboxylic acid], the “Biological Data (Flex), channel not given” value in test [1] is “Not Active (Flex)”.

As for `O=C(O)c1cccc(Nc2nc(-c3ccc(Cl)cc3Cl)nc3ccccc23)c1` [Compound 101, 3-[2-(2,4-dichloro-phenyl)-quinazolin-4-ylamino]-benzoic acid], the IC50 (commonly the midpoint of a concentration-inhibition curve) is greater than 50 µM in test [2] and 20 to 30 µM in test [3].

For the compound `Clc1ccc2c(N3CCNCC3)ccnc2c1` [Compound H, 7-chloro-4-piperazin-1-yl-quinoline], the EC50 (usually the midpoint of the concentration-response curve) in test [2] was less than 10 µM. Moreover, the IC50 in test [2] was 5 to 15 µM; in test [4] (OpusExpress (OX), Tables A-F, h1a printed in some cells only, read-out: Biological Data (IC50 uM) h1a (OX)) it was 30 to 50 µM; in test [4] (Table H, read-out: IC50 (μM) Opus Express (h1a)), 43.7 µM; in test [3], 2 to 10 µM.
